Data from PubChem BioAssay (NCI).
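Step 1: Grow cells in 96-well plates. Step 2: Expose to compound for 48 hours at 5 concentrations. Step 3: Interpolate endpoints linearly; if unreached, use highest concentration. The concentration for 50% growth inhibition is given as GI50. TGI: total growth inhibition.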

What was measured:
Assay in all cases: DTP human tumour cell line panel, 48 h
786-0 renal = test system: 786-0 renal
A498 renal = test system: A498 renal
A549 NSCLC = test system: A549 NSCLC
ACHN renal = test system: ACHN renal
BT-549 breast = test system: BT-549 breast
CAKI-1 renal = test system: CAKI-1 renal
CCRF-CEM leukemia = test system: CCRF-CEM leukemia
COLO 205 colon = test system: COLO 205 colon
DU-145 prostate = test system: DU-145 prostate
EKVX NSCLC = test system: EKVX NSCLC
HCC-2998 colon = test system: HCC-2998 colon
HCT-116 colon = test system: HCT-116 colon
HCT-15 colon = test system: HCT-15 colon
HL-60(TB) leukemia = test system: HL-60(TB) leukemia
HOP-62 NSCLC = test system: HOP-62 NSCLC
HOP-92 NSCLC = test system: HOP-92 NSCLC
HS 578T breast = test system: HS 578T breast
HT29 colon = test system: HT29 colon
IGROV1 ovarian = test system: IGROV1 ovarian
K-562 leukemia = test system: K-562 leukemia
KM12 colon = test system: KM12 colon
LOX IMVI melanoma = test system: LOX IMVI melanoma
M14 melanoma = test system: M14 melanoma
MALME-3M melanoma = test system: MALME-3M melanoma
MDA-MB-231 breast = test system: MDA-MB-231 breast
MDA-MB-435 = test system: MDA-MB-435
MOLT-4 leukemia = test system: MOLT-4 leukemia
NCI-H226 lung = test system: NCI-H226 lung
NCI-H23 lung = test system: NCI-H23 lung
NCI-H460 lung = test system: NCI-H460 lung
NCI-H522 lung = test system: NCI-H522 lung
NCI/ADR-RES ovarian = test system: NCI/ADR-RES ovarian
OVCAR-3 ovarian = test system: OVCAR-3 ovarian
OVCAR-4 ovarian = test system: OVCAR-4 ovarian
OVCAR-5 ovarian = test system: OVCAR-5 ovarian
OVCAR-8 ovarian = test system: OVCAR-8 ovarian
PC-3 prostate = test system: PC-3 prostate
RPMI-8226 leukemia = test system: RPMI-8226 leukemia
RXF 393 renal = test system: RXF 393 renal
SF-268 CNS = test system: SF-268 CNS
SF-295 CNS = test system: SF-295 CNS
SF-539 CNS = test system: SF-539 CNS
SK-MEL-2 melanoma = test system: SK-MEL-2 melanoma
SK-MEL-28 melanoma = test system: SK-MEL-28 melanoma
SK-MEL-5 melanoma = test system: SK-MEL-5 melanoma
SK-OV-3 ovarian = test system: SK-OV-3 ovarian
SN12C renal = test system: SN12C renal
SNB-19 CNS = test system: SNB-19 CNS
SNB-75 CNS = test system: SNB-75 CNS
SR leukemia = test system: SR leukemia
SW-620 colon = test system: SW-620 colon
T-47D breast = test system: T-47D breast
TK-10 renal = test system: TK-10 renal
U251 CNS = test system: U251 CNS
UACC-257 melanoma = test system: UACC-257 melanoma
UACC-62 melanoma = test system: UACC-62 melanoma
UO-31 renal = test system: UO-31 renal

C=CCOC1=CC(=O)c2ccccc2C1=O
GI50 (786-0 renal): 4.88 µM | TGI (786-0 renal): 15.6 µM | GI50 (A498 renal): 1.42 µM | TGI (A498 renal): 19.8 µM | GI50 (A549 NSCLC): 2.12 µM | TGI (A549 NSCLC): 4.85 µM | GI50 (ACHN renal): 3.23 µM | TGI (ACHN renal): 11.9 µM | GI50 (BT-549 breast): 11.1 µM | TGI (BT-549 breast): 23.2 µM | GI50 (CAKI-1 renal): 15.8 µM | TGI (CAKI-1 renal): 68.7 µM | GI50 (CCRF-CEM leukemia): 4.37 µM | TGI (CCRF-CEM leukemia): 41.1 µM | GI50 (COLO 205 colon): 1.7 µM | TGI (COLO 205 colon): 3.29 µM | GI50 (DU-145 prostate): 2.11 µM | TGI (DU-145 prostate): 3.72 µM | GI50 (EKVX NSCLC): 4.75 µM | TGI (EKVX NSCLC): 26.9 µM | GI50 (HCC-2998 colon): 8.59 µM | TGI (HCC-2998 colon): 21.9 µM | GI50 (HCT-116 colon): 2.68 µM | TGI (HCT-116 colon): 6.69 µM | GI50 (HCT-15 colon): 2.1 µM | TGI (HCT-15 colon): 4.64 µM | GI50 (HL-60(TB) leukemia): 2.75 µM | TGI (HL-60(TB) leukemia): 6.61 µM | GI50 (HOP-62 NSCLC): 1.82 µM | TGI (HOP-62 NSCLC): 3.43 µM | GI50 (HOP-92 NSCLC): 4.42 µM | TGI (HOP-92 NSCLC): 15.4 µM | GI50 (HS 578T breast): 4.58 µM | TGI (HS 578T breast): 43.2 µM | GI50 (HT29 colon): 2.39 µM | TGI (HT29 colon): 5.53 µM | GI50 (IGROV1 ovarian): 4.34 µM | TGI (IGROV1 ovarian): 13.9 µM | GI50 (K-562 leukemia): 3.62 µM | TGI (K-562 leukemia): 16.5 µM | GI50 (KM12 colon): 3.23 µM | TGI (KM12 colon): 9.26 µM | GI50 (LOX IMVI melanoma): 1.71 µM | TGI (LOX IMVI melanoma): 3.65 µM | GI50 (M14 melanoma): 2.11 µM | TGI (M14 melanoma): 4.35 µM | GI50 (MALME-3M melanoma): 1.89 µM | TGI (MALME-3M melanoma): 3.54 µM | GI50 (MDA-MB-231 breast): 5.27 µM | TGI (MDA-MB-231 breast): > 100 µM | GI50 (MDA-MB-435): 1.94 µM | TGI (MDA-MB-435): 3.64 µM | GI50 (MOLT-4 leukemia): 5.36 µM | TGI (MOLT-4 leukemia): 40.4 µM | GI50 (NCI-H226 lung): 1.88 µM | TGI (NCI-H226 lung): 4.12 µM | GI50 (NCI-H23 lung): 1.76 µM | TGI (NCI-H23 lung): 3.41 µM | GI50 (NCI-H460 lung): 11.6 µM | TGI (NCI-H460 lung): 31.1 µM | GI50 (NCI-H522 lung): 2.05 µM | TGI (NCI-H522 lung): 3.9 µM | GI50 (NCI/ADR-RES ovarian): 2.68 µM | TGI (NCI/ADR-RES ovarian): 7 µM | GI50 (OVCAR-3 ovarian): 2.51 µM | TGI (OVCAR-3 ovarian): 5.44 µM | GI50 (OVCAR-4 ovarian): 1.57 µM | TGI (OVCAR-4 ovarian): 2.95 µM | GI50 (OVCAR-5 ovarian): 2.38 µM | TGI (OVCAR-5 ovarian): 5.46 µM | GI50 (OVCAR-8 ovarian): 3.37 µM | TGI (OVCAR-8 ovarian): 12.9 µM | GI50 (PC-3 prostate): 4.29 µM | TGI (PC-3 prostate): 24.5 µM | GI50 (RPMI-8226 leukemia): 3.2 µM | GI50 (RXF 393 renal): 2.45 µM | TGI (RXF 393 renal): 6.03 µM | GI50 (SF-268 CNS): 4.21 µM | TGI (SF-268 CNS): 14.5 µM | GI50 (SF-295 CNS): 2.12 µM | TGI (SF-295 CNS): 4.75 µM | GI50 (SF-539 CNS): 2.37 µM | TGI (SF-539 CNS): 6.01 µM | GI50 (SK-MEL-2 melanoma): 2.34 µM | TGI (SK-MEL-2 melanoma): 4.46 µM | GI50 (SK-MEL-28 melanoma): 2.38 µM | TGI (SK-MEL-28 melanoma): 4.44 µM | GI50 (SK-MEL-5 melanoma): 1.63 µM | TGI (SK-MEL-5 melanoma): 3.01 µM | GI50 (SK-OV-3 ovarian): 3.59 µM | TGI (SK-OV-3 ovarian): 12.3 µM | GI50 (SN12C renal): 2.75 µM | TGI (SN12C renal): 6.45 µM | GI50 (SNB-19 CNS): 12.9 µM | TGI (SNB-19 CNS): 29.2 µM | GI50 (SNB-75 CNS): 2.11 µM | TGI (SNB-75 CNS): 4.08 µM | GI50 (SR leukemia): 2.24 µM | TGI (SR leukemia): 7.61 µM | GI50 (SW-620 colon): 2.31 µM | TGI (SW-620 colon): 4.84 µM | GI50 (T-47D breast): 2.52 µM | TGI (T-47D breast): 7.85 µM | GI50 (TK-10 renal): 15.4 µM | TGI (TK-10 renal): 28.9 µM | GI50 (U251 CNS): 2.71 µM | TGI (U251 CNS): 6.65 µM | GI50 (UACC-257 melanoma): 1.66 µM | TGI (UACC-257 melanoma): 3.72 µM | GI50 (UACC-62 melanoma): 2.01 µM | TGI (UACC-62 melanoma): 4.05 µM | GI50 (UO-31 renal): 2.25 µM | TGI (UO-31 renal): 7.4 µM
